Measurements from US20240252508A1, “Novel glucose uptake inhibitors for use in the treatment of cancer” (NOVELYEAST BV, priority 2021, published 2024).

Key:
tps1Δ cells = assay: Growth rescue of tps1Δ strain on glucose (growth curves, 2% galactose medium); format: cell-based, S. cerevisiae; details: 100 μM compound, 2.5 mM glucose
Method in brief: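 Growth at 30 °C was tracked by OD595 readings every 30 min, with at least triplicate technical wells. Cells came from 2% galactose synthetic precultures, were washed and set to OD 0.1, and received compound 10 min ahead of the glucose addition.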

[1] = test system: A549 lung adenocarcinoma cells; assay: A549 cell proliferation / growth inhibition; format: cell-based, human; details: for Selected from primary screen for growth inhibition of A549 cells at 50 μM: 50 μM compound, 1 mM glucose; for Selected for having an IC50 ratio (10 mM glucose: 1 mM glucose) of A549 growth higher than WBC-A: IC50 on 10 mM vs 1 mM glucose, compared with WBC-A
Method in brief: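 A549 growth screened in RPMI with 1 mM glucose, compounds at 50 μM; cell number from counts of Hoechst-stained nuclei after 3 days. Growth curves also followed by IncuCyte phase-contrast confluency over 3–5 days (1000–1500 cells/well), DMSO ≤0.1%, ≥4 technical repeats.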

SMILES | Rescue of the tps1Δ strain on 2.5 mM glucose at 100 μM (tps1Δ cells) | Selected from primary screen for growth inhibition of A549 cells at 50 μM [1] | Selected for having an IC50 ratio (10 mM glucose: 1 mM glucose) of A549 growth higher than WBC-A [1]
CC(=O)Nc1ccc(C(=O)CSc2nc(C)nc3scc(-c4cccs4)c23)cc1 [17B] | No | Yes | Higher IC50 ratio, but false-positive
Cc1nc(SCC(=O)N2CCOCC2)c2c3c(sc2n1)CCC3 [65C] | No | No | 
c1ccc(Cn2c(CN3CCCC3)nnc2Sc2ncnc3scc(-c4ccccc4)c23)cc1 [27A] | No | Yes | Lower IC50 ratio
Cc1nc(Sc2nnc(-c3ccncc3)n2C)c2c(-c3cccs3)csc2n1 [26A] | Yes | Yes | Lower IC50 ratio
CCOC(=O)CSc1nnc(C)c2cnn(-c3ccccc3)c12 [74C] | No | No | 
Cc1nnc(SCC(=O)NC(C)(C)C)c2c1cnn2-c1ccccc1 [75C] | No | No | 
Cc1nnc(Sc2nc(-c3cccs3)nc3scc(-c4ccccc4)c23)n1N [8A] | No | No | 
CCN(CC)CCSc1ncnc2scc(-c3ccccc3)c12 [36C] | No | Yes | Lower IC50 ratio
COCCSc1nnc(C)c2cnn(-c3ccccc3)c12 [69C] | No | No | 
COC(=O)CSc1nc(CN2CCOCC2)nc2scc(-c3cccs3)c12 [37B] | No | No | 
Cc1nc(N(C)CC(=O)N2CCN(C)CC2)c2c(-c3cccs3)csc2n1 [10B] | No | No | 
O=c1ccnc(Sc2nc(CN3CCOCC3)nc3scc(-c4cccs4)c23)[nH]1 [7A] | No | No | 
Cc1nc(SCC(=O)N(Cc2ccccc2)Cc2ccccc2)c2c(-c3cccs3)csc2n1 [22B] | No | No | 
Cc1nc(SCC(=O)Nc2ccccc2C#N)c2c(-c3cccs3)csc2n1 [19B] | No | No | 
CCOC(=O)CNC(=O)CSc1nnc(C)c2cnn(-c3ccccc3)c12 [73C] | No | No | 
Cc1nc(SCC(=O)NC(=O)NCc2ccco2)c2c(-c3cccs3)csc2n1 [28B] | No | No | 
COc1cccc(NC(=O)CSc2nc(C)nc3scc(-c4cccs4)c23)c1 [45B] | No | Yes | Higher IC50 ratio, but false-positive
Cc1nc(NCC(=O)NCc2ccco2)c2c(-c3ccccc3)csc2n1 [4C] | No | Yes | Higher IC50 ratio and confirmed
Cc1nc(SCC(=O)N(C)Cc2ccco2)c2c(-c3cccs3)csc2n1 [27B] | No | No | 
CCn1nnnc1Sc1ncnc2scc(-c3ccc(C)cc3)c12 [61A] | No | Yes | Lower IC50 ratio
Cc1sc2ncnc(Sc3nnc4ccccn34)c2c1C [58A] | No | No | 
COC(=O)CSc1ncnc2scc(-c3ccccc3)c12 [86C] | No | No | 
NC(=O)CSc1ncnc2scc(-c3ccccc3)c12 [82C] | No | No | 
COCc1nc(Sc2nnc(CN)n2C)c2c(-c3ccccc3)csc2n1 [40A] | No | No | 
OCCSc1nc(-c2cccs2)nc2scc(-c3ccccc3)c12 [23C] | No | Yes | Lower IC50 ratio
